In patent US10443082B2, “Concentration gradient test reagent kit and testing method for use in bacterial/fungal drug susceptibility testing” (XINTRUM PHARMACEUTICALS, LTD, priority 2014, dated 2019):
≈ marks a conversion by molar mass, not a printed value.

What was measured:
Type in all cases: cell-based
Streptococcus pneumoniae [1] = test: MIC assay, concentration gradient agar strip method
Excerpt: (§1) Combination of the pre-fabricated antimicrobial drug and pre-fabricated culture medium to form a test strip unit: the films are removed from the bottom and top of the culture medium container, and the cells of the culture medium container can be inserted into the corresponding cells of the drug container. Then, the drug container is covered with a lid, and the pressure created in the process causes the antimicrobial drug at the bottoms of the cells to come into contact with the solid culture medium, and therefore dissolved in the agar culture medium to reach a specific concentration. To use the solid culture medium, a bacterial culture solution can be applied on the upper surface of the solid culture medium in each cell of the culture medium container. Then the culture medium container is covered with a lid, and then kept at 35° C. for 16-20 hours before the culture result is visually checked. When the drug concentration is higher than the MIC for the bacteria, no bacteria is observed on the surface of the gel. When the drug concentration is lower than the MIC, the bacteria grows on the surface of the culture medium and eventually develops a bacterial colony thereon. The lowest drug concentration at which no bacteria is observed on the gel surface is considered as the MIC of the antimicrobial drug for the strain under test.
(§2) This embodiment still uses a drug container with 12 round cells, and each round cell has internal dimensions of 4 mm×6 mm (bottom's radius×height). However, the experimental strains in use are Streptococcus pneumoniae. […] The bacterial lawn on the drug-free control agar blocks is expected to grow well; and • 8) performing an MIC assay on the test strains with the tube broth dilution method.

Streptococcus pneumoniae [2] = test: MIC assay, tube broth dilution method; conditions: read-out: MIC, Concentration (tube broth dilution method)
Excerpt: as §2

Klebsiella pneumoniae [3] = test: MIC assay, tube broth dilution method; conditions: read-out: MIC, Concentration (tube broth dilution method)
Excerpt: (§3) A concentration gradient measurement method for use in bacterial/fungal drug susceptibility testing is provided. […] The bacterial lawn on the drug-free control agar blocks is expected to grow well; and • 8) in the meantime, performing an MIC assay on the test strains with tube broth dilution method.

Proteus mirabilis [4] = test: MIC assay, tube broth dilution method; conditions: Strain No. 27 Proteus mirabilis; read-out: MIC, Concentration (tube broth dilution method)
Excerpt: as §3

Klebsiella oxytoca [5] = test: MIC assay, tube broth dilution method
Excerpt: as §3

Escherichia coli [6] = test: MIC assay, tube broth dilution method; conditions: read-out: MIC, Concentration (tube broth dilution method)
Excerpt: as §3

Enterobacter cloacae [7] = test: MIC assay, tube broth dilution method
Excerpt: as §3

Klebsiella pneumoniae [8] = test: MIC assay, concentration gradient agar strip method
Excerpt: as §1, §3

Proteus mirabilis [9] = test: as above; conditions: Strain No. 27 Proteus mirabilis
Excerpt: as §1, §3

Klebsiella oxytoca [10] = test: as above
Excerpt: as §1, §3

Escherichia coli [11] = test: as above
Excerpt: as §1, §3

Enterobacter cloacae [12] = test: as above
Excerpt: as §1, §3

[13] = Strain No. 1 Streptococcus pneumoniae
[14] = Strain No. 2 Streptococcus pneumoniae
[15] = Strain No. 3 Streptococcus pneumoniae
[16] = Strain No. 4 Streptococcus pneumoniae
[17] = Strain No. 5 Streptococcus pneumoniae
[18] = Strain No. 6 Streptococcus pneumoniae
[19] = Strain No. 7 Streptococcus pneumoniae
[20] = Strain No. 8 Streptococcus pneumoniae
[21] = Strain No. 9 Streptococcus pneumoniae
[22] = Strain No. 10 Streptococcus pneumoniae
[23] = Strain No. 11 Streptococcus pneumoniae
[24] = Strain No. 12 Streptococcus pneumoniae
[25] = Strain No. 13 Streptococcus pneumoniae
[26] = Strain No. 14 Streptococcus pneumoniae
[27] = Strain No. 15 Streptococcus pneumoniae
[28] = Strain No. 16 Streptococcus pneumoniae
[29] = Strain No. 17 Streptococcus pneumoniae
[30] = Strain No. 18 Streptococcus pneumoniae
[31] = Strain No. 19 Streptococcus pneumoniae
[32] = Strain No. 20 Streptococcus pneumoniae
[33] = Strain No. 1 Klebsiella pneumoniae
[34] = Strain No. 2 Klebsiella pneumoniae
[35] = Strain No. 3 Klebsiella pneumoniae
[36] = Strain No. 4 Klebsiella pneumoniae
[37] = Strain No. 5 Klebsiella pneumoniae
[38] = Strain No. 6 Klebsiella pneumoniae
[39] = Strain No. 7 Klebsiella pneumoniae
[40] = Strain No. 8 Klebsiella pneumoniae
[41] = Strain No. 18 Klebsiella pneumoniae
[42] = Strain No. 21 Klebsiella pneumoniae
[43] = Strain No. 24 Klebsiella pneumoniae
[44] = Strain No. 25 Klebsiella oxytoca
[45] = Strain No. 29 Enterobacter cloacae

Work on `CC1(C)S[C@@H]2[C@H](NC(=O)[C@H](N)c3ccc(O)cc3)C(=O)N2[C@H]1C(=O)O` [Amoxicillin] yielded an MIC (Streptococcus pneumoniae [1]; [13]) of 0.12 µg/mL, an MIC (Streptococcus pneumoniae [1]; [14]) of 0.12 µg/mL and an MIC (Streptococcus pneumoniae [1]; [15]) of 0.25 µg/mL. For the same compound, the MIC (Streptococcus pneumoniae [1]; [16]) was 0.25 µg/mL, the MIC (Streptococcus pneumoniae [1]; [17]) was 0.5 µg/mL and the MIC (Streptococcus pneumoniae [1]; [18]) was 0.12 µg/mL. For the same compound, the MIC (Streptococcus pneumoniae [1]; [19]) was 0.25 µg/mL, the MIC (Streptococcus pneumoniae [1]; [20]) was 1 µg/mL and the MIC (Streptococcus pneumoniae [1]; [21]) was 0.25 µg/mL. It also gave an MIC (Streptococcus pneumoniae [1]; [22]) of 2 µg/mL, an MIC (Streptococcus pneumoniae [1]; [23]) of 0.12 µg/mL and an MIC (Streptococcus pneumoniae [1]; [24]) of 0.06 µg/mL. For the same compound, the MIC (Streptococcus pneumoniae [1]; [25]) was 0.06 µg/mL, the MIC (Streptococcus pneumoniae [1]; [26]) was 2 µg/mL and the MIC (Streptococcus pneumoniae [1]; [27]) was 0.12 µg/mL. For the same compound, the MIC (Streptococcus pneumoniae [1]; [28]) was 0.12 µg/mL, the MIC (Streptococcus pneumoniae [1]; [29]) was 1 µg/mL and the MIC (Streptococcus pneumoniae [1]; [30]) was 0.5 µg/mL. It also gave an MIC (Streptococcus pneumoniae [1]; [31]) of 0.25 µg/mL, an MIC (Streptococcus pneumoniae [1]; [32]) of 0.12 µg/mL and an MIC (Streptococcus pneumoniae [2]; [13]) of 0.12 µg/mL (≈ 0.328 µM). For the same compound, the MIC (Streptococcus pneumoniae [2]; [14]) was 0.12 µg/mL (≈ 0.328 µM), the MIC (Streptococcus pneumoniae [2]; [15]) was 0.12 µg/mL (≈ 0.328 µM) and the MIC (Streptococcus pneumoniae [2]; [16]) was 0.25 µg/mL (≈ 0.684 µM). It also gave an MIC (Streptococcus pneumoniae [2]; [17]) of 0.5 µg/mL (≈ 1.37 µM), an MIC (Streptococcus pneumoniae [2]; [18]) of 0.12 µg/mL (≈ 0.328 µM) and an MIC (Streptococcus pneumoniae [2]; [19]) of 0.25 µg/mL (≈ 0.684 µM). For the same compound, the MIC (Streptococcus pneumoniae [2]; [20]) was 0.5 µg/mL (≈ 1.37 µM), the MIC (Streptococcus pneumoniae [2]; [21]) was 0.25 µg/mL (≈ 0.684 µM) and the MIC (Streptococcus pneumoniae [2]; [22]) was 2 µg/mL (≈ 5.47 µM). The MIC (Streptococcus pneumoniae [2]; [23]) was 0.12 µg/mL (≈ 0.328 µM), the MIC (Streptococcus pneumoniae [2]; [24]) was 0.06 µg/mL (≈ 0.164 µM) and the MIC (Streptococcus pneumoniae [2]; [25]) was 0.12 µg/mL (≈ 0.328 µM). For the same compound, the MIC (Streptococcus pneumoniae [2]; [26]) was 2 µg/mL (≈ 5.47 µM), the MIC (Streptococcus pneumoniae [2]; [27]) was 0.12 µg/mL (≈ 0.328 µM) and the MIC (Streptococcus pneumoniae [2]; [28]) was 0.12 µg/mL (≈ 0.328 µM). For the same compound, the MIC (Streptococcus pneumoniae [2]; [29]) was 1 µg/mL (≈ 2.74 µM), the MIC (Streptococcus pneumoniae [2]; [30]) was 1 µg/mL (≈ 2.74 µM) and the MIC (Streptococcus pneumoniae [2]; [31]) was 0.12 µg/mL (≈ 0.328 µM). It also gave an MIC (Streptococcus pneumoniae [2]; [32]) of 0.12 µg/mL (≈ 0.328 µM).
For `CO/N=C(\C(=O)N[C@@H]1C(=O)N2C(C(=O)O)=C(COC(C)=O)CS[C@H]12)c1csc(N)n1` [Cefotaxime], the MIC (Klebsiella pneumoniae [3]; [33]) was 4 µg/mL (≈ 8.78 µM), the MIC (Klebsiella pneumoniae [3]; [34]) was 4 µg/mL (≈ 8.78 µM) and the MIC (Klebsiella pneumoniae [3]; [35]) was 2 µg/mL (≈ 4.39 µM). It also gave an MIC (Klebsiella pneumoniae [3]; [36]) of 2 µg/mL (≈ 4.39 µM), an MIC (Klebsiella pneumoniae [3]; [37]) of 2 µg/mL (≈ 4.39 µM) and an MIC (Klebsiella pneumoniae [3]; [38]) of 4 µg/mL (≈ 8.78 µM). For the same compound, the MIC (Klebsiella pneumoniae [3]; [39]) was 8 µg/mL (≈ 17.6 µM), the MIC (Klebsiella pneumoniae [3]; [40]) was 4 µg/mL (≈ 8.78 µM) and the MIC (Klebsiella pneumoniae [3]; [41]) was 16 µg/mL (≈ 35.1 µM). For the same compound, the MIC (Klebsiella pneumoniae [3]; [42]) was 8 µg/mL (≈ 17.6 µM), the MIC (Klebsiella pneumoniae [3]; [43]) was 4 µg/mL (≈ 8.78 µM) and the MIC (Proteus mirabilis [4]) was 4 µg/mL (≈ 8.78 µM). For the same compound, the MIC (Klebsiella oxytoca [5]; Strain No. 22 Klebsiella oxytoca, read-out: MIC, Concentration (tube broth dilution method)) was 8 µg/mL (≈ 17.6 µM), the “MIC, Concentration (tube broth dilution method)” value (Klebsiella oxytoca [5]; [44]) was 8.0 µg/mL (≈ 17.6 µM) and the MIC (Escherichia coli [6]; Strain No. 9 Escherichia coli) was 8 µg/mL (≈ 17.6 µM). It also gave an MIC (Escherichia coli [6]; Strain No. 10 Escherichia coli) of 1 µg/mL (≈ 2.2 µM), an MIC (Escherichia coli [6]; Strain No. 11 Escherichia coli) of 4 µg/mL (≈ 8.78 µM) and an MIC (Escherichia coli [6]; Strain No. 12 Escherichia coli) of 4 µg/mL (≈ 8.78 µM). For the same compound, the MIC (Escherichia coli [6]; Strain No. 13 Escherichia coli) was 4 µg/mL (≈ 8.78 µM), the MIC (Escherichia coli [6]; Strain No. 14 Escherichia coli) was 8 µg/mL (≈ 17.6 µM) and the MIC (Escherichia coli [6]; Strain No. 15 Escherichia coli) was 4 µg/mL (≈ 8.78 µM). The MIC (Escherichia coli [6]; Strain No. 16 Escherichia coli) was 4 µg/mL (≈ 8.78 µM), the MIC (Escherichia coli [6]; Strain No. 17 Escherichia coli) was 4 µg/mL (≈ 8.78 µM) and the MIC (Escherichia coli [6]; Strain No. 19 Escherichia coli) was 16 µg/mL (≈ 35.1 µM). It also gave an MIC (Escherichia coli [6]; Strain No. 20 Escherichia coli) of 4 µg/mL (≈ 8.78 µM), an MIC (Escherichia coli [6]; Strain No. 23 Escherichia coli) of 8 µg/mL (≈ 17.6 µM) and an MIC (Escherichia coli [6]; Strain No. 26 Escherichia coli) of 4 µg/mL (≈ 8.78 µM). For the same compound, the MIC (Escherichia coli [6]; Strain No. 30 Escherichia coli) was 8 µg/mL (≈ 17.6 µM), the MIC (Enterobacter cloacae [7]; Strain No. 28 Enterobacter cloacae, read-out: MIC, Concentration (tube broth dilution method)) was 16 µg/mL (≈ 35.1 µM) and the “MIC, Concentration (tube broth dilution method)” value (Enterobacter cloacae [7]; [45]) was 16.0 µg/mL (≈ 35.1 µM). It also gave an MIC (Klebsiella pneumoniae [8]; [33]) of 4 µg/mL, an MIC (Klebsiella pneumoniae [8]; [34]) of 4 µg/mL and an MIC (Klebsiella pneumoniae [8]; [35]) of 4 µg/mL. It also gave an MIC (Klebsiella pneumoniae [8]; [36]) of 2 µg/mL, an MIC (Klebsiella pneumoniae [8]; [37]) of 2 µg/mL and an MIC (Klebsiella pneumoniae [8]; [38]) of 4 µg/mL. It also gave an MIC (Klebsiella pneumoniae [8]; [39]) of 8 µg/mL, an MIC (Klebsiella pneumoniae [8]; [40]) of 4 µg/mL and an MIC (Klebsiella pneumoniae [8]; [41]) of 16 µg/mL. It also gave an MIC (Klebsiella pneumoniae [8]; [42]) of 8 µg/mL, an MIC (Klebsiella pneumoniae [8]; [43]) of 4 µg/mL and an MIC (Proteus mirabilis [9]) of 8 µg/mL. For the same compound, the MIC (Klebsiella oxytoca [10]; Strain No. 22 Klebsiella oxytoca) was 8 µg/mL, the “MIC, Concentration (gradient agar strip method)” value (Klebsiella oxytoca [10]; [44]) was 8.0 µg/mL and the MIC (Escherichia coli [11]; Strain No. 9 Escherichia coli) was 8 µg/mL. It also gave an MIC (Escherichia coli [11]; Strain No. 10 Escherichia coli) of 1 µg/mL, an MIC (Escherichia coli [11]; Strain No. 11 Escherichia coli) of 2 µg/mL and an MIC (Escherichia coli [11]; Strain No. 12 Escherichia coli) of 4 µg/mL. For the same compound, the MIC (Escherichia coli [11]; Strain No. 13 Escherichia coli) was 4 µg/mL, the MIC (Escherichia coli [11]; Strain No. 14 Escherichia coli) was 8 µg/mL and the MIC (Escherichia coli [11]; Strain No. 15 Escherichia coli) was 2 µg/mL. The MIC (Escherichia coli [11]; Strain No. 16 Escherichia coli) was 4 µg/mL, the MIC (Escherichia coli [11]; Strain No. 17 Escherichia coli) was 4 µg/mL and the MIC (Escherichia coli [11]; Strain No. 19 Escherichia coli) was 16 µg/mL. It also gave an MIC (Escherichia coli [11]; Strain No. 20 Escherichia coli) of 4 µg/mL, an MIC (Escherichia coli [11]; Strain No. 23 Escherichia coli) of 8 µg/mL and an MIC (Escherichia coli [11]; Strain No. 26 Escherichia coli) of 4 µg/mL. For the same compound, the MIC (Escherichia coli [11]; Strain No. 30 Escherichia coli) was 8 µg/mL, the MIC (Enterobacter cloacae [12]; Strain No. 28 Enterobacter cloacae) was 16 µg/mL and the “MIC, Concentration (gradient agar strip method)” value (Enterobacter cloacae [12]; [45]) was 16.0 µg/mL.
